Experiments:
[1] = target: T1, 5-hydroxytryptamine receptor 2B (Homo sapiens, UniProt P41595); assay: Antagonist activity at human 5-HT2B receptor expressed in CHO-K1 cells assessed as seretonin-induced calcium level by FDSS assay; type: functional, cell-based
[2] = target: Vasopressin V1a receptor (Homo sapiens, UniProt P37288); assay: Agonist activity at human wild-type AVPR1A receptor expressed in CHO-K1 cells assessed as calcium level by FDSS assay; type: functional, cell-based
[3] = target: T2, 5-hydroxytryptamine receptor 2C (Homo sapiens, UniProt P28335); assay: Antagonist activity at human 5-HT2C receptor expressed in CHO-K1 cells assessed as seretonin-induced calcium level by FDSS assay; type: functional, cell-based
T2 sequence (P28335 whole entry): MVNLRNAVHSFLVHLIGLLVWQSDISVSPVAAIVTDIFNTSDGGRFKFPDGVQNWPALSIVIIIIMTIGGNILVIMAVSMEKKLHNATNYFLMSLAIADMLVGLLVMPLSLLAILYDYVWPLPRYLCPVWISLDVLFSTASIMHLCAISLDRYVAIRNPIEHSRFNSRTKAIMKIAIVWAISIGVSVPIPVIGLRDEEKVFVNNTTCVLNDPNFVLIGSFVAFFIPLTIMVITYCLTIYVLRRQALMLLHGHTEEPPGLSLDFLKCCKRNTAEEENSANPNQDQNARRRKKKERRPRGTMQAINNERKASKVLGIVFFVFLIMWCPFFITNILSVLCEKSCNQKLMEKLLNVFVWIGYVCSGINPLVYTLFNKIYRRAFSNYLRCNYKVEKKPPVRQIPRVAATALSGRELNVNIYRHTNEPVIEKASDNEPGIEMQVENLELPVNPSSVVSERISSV

[4] = target: 5-hydroxytryptamine receptor 1B (Homo sapiens, UniProt P28222); assay: Agonist activity at human 5-HT1B receptor expressed in CHO-K1 cells assessed as cAMP level by HTRF assay; type: functional, cell-based
[5] = target: T3, Alpha-2A adrenergic receptor (Homo sapiens, UniProt P08913); assay: Agonist activity at human wild-type alpha 2A receptor expressed in CHO-K1 cells assessed as cAMP level by HTRF assay; type: functional, cell-based
T3 sequence (P08913 whole entry): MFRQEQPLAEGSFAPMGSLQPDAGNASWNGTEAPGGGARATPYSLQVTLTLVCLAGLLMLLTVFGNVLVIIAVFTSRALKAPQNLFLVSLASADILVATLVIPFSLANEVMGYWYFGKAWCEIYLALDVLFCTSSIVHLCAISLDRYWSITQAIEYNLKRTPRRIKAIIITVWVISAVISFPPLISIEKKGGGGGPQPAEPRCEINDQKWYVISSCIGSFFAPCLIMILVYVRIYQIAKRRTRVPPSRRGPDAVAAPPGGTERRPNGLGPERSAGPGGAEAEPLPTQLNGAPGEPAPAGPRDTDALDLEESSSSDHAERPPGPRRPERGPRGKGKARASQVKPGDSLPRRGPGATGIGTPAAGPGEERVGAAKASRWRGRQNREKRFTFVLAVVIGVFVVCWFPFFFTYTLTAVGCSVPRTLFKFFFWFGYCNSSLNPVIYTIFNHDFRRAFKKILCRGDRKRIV

[6] = target: 5-hydroxytryptamine receptor 2A (Homo sapiens, UniProt P28223); assay: Agonist activity at human 5-HT2A receptor expressed in CHO-K1 cells assessed as calcium level by FDSS assay; type: functional, cell-based
[7] = target: T4, Cytochrome P450 2C8 (Homo sapiens, UniProt P10632); assay: Inhibition of human CYP2C8 by LC-MS analysis; type: ADME
T4 sequence (P10632 whole entry): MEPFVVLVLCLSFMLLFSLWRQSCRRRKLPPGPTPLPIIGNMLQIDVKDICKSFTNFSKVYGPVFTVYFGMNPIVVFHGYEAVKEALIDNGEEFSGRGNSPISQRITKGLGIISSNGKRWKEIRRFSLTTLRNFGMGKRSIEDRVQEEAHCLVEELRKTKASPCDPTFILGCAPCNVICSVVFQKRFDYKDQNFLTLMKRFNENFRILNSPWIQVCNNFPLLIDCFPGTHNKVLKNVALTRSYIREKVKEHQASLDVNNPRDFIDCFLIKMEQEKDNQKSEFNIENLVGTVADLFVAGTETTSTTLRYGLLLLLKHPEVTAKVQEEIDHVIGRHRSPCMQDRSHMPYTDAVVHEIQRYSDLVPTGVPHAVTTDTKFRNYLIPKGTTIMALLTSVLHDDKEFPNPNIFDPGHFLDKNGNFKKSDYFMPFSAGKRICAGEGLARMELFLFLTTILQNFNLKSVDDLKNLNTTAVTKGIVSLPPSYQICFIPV

[8] = target: T5, D(1A) dopamine receptor (Homo sapiens, UniProt P21728); assay: Agonist activity at human wild-type D1 receptor expressed in CHO cells assessed as cAMP level by HTRF assay; type: functional, cell-based
[9] = Fraction unbound in rat plasma at 5 uM after 4.5 hrs by LC-MS/MS analysis; type: ADME, cell-free
[10] = target: Muscarinic acetylcholine receptor M3 (Homo sapiens, UniProt P20309); assay: Antagonist activity at human wild-type M3 receptor expressed in CHO-K1 cells assessed as acetylcholine-induced calcium by FDSS assay; type: functional, cell-based
[11] = Log D of compound at pH 7.4 by chromotography; type: physicochemical; details: buffer
[12] = target: Beta-2 adrenergic receptor (Homo sapiens, UniProt P07550); assay: Antagonist activity at human beta2 receptor expressed in CHO-K1 cells assessed as isoproterenol-induced cAMP level by HTRF assay; type: functional, cell-based
[13] = Chemical stability of compound in 0.1N NaOH assessed as compound remaining at 10 mg/ml after 1 day; type: physicochemical; details: read-out: Stability
[14] = test system: HepG2; assay: Cytotoxicity against human HepG2 cells; type: cell-based
[15] = Chemical stability of compound in buffer at pH 7.4 assessed as compound remaining at 10 mg/ml after 1 day; type: physicochemical; details: read-out: Stability
[16] = target: T6, Endothelin-1 receptor (Homo sapiens, UniProt P25101); assay: Agonist activity at human wild-type ETA receptor expressed in CHO-K1 cells assessed as calcium level by HTRF assay; type: functional, cell-based
T6 sequence (P25101 whole entry): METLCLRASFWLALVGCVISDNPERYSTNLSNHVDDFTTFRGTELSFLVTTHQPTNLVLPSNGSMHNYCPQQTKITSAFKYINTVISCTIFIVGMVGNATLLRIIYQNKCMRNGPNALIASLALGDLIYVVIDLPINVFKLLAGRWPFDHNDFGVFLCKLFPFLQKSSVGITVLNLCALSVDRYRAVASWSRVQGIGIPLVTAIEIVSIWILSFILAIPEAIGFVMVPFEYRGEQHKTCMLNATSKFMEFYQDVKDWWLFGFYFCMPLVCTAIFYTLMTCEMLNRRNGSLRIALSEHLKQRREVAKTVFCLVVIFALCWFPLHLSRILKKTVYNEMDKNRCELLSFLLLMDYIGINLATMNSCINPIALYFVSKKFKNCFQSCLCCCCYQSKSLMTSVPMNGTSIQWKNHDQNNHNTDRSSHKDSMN

[17] = target: T1, 5-hydroxytryptamine receptor 2B; assay: Agonist activity at human 5-HT2B receptor expressed in CHO-K1 cells assessed as calcium level by FDSS assay; type: functional, cell-based
[18] = target: T5, D(1A) dopamine receptor; assay: Antagonist activity at human wild-type D1 receptor expressed in CHO cells assessed as dopamine-induced cAMP by HTRF assay; type: functional, cell-based

T5 sequence (P21728 whole entry): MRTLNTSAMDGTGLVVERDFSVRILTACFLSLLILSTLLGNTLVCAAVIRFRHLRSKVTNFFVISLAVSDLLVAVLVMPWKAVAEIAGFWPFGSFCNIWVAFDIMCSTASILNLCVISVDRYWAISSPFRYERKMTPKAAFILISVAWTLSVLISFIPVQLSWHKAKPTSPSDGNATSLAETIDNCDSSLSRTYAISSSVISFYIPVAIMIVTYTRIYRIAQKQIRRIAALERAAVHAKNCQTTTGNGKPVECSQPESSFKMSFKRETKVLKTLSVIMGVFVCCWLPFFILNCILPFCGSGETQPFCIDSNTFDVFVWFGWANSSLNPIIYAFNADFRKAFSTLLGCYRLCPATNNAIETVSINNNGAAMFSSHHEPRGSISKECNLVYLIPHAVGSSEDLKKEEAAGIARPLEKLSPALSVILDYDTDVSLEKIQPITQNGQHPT
T1 sequence (P41595 whole entry): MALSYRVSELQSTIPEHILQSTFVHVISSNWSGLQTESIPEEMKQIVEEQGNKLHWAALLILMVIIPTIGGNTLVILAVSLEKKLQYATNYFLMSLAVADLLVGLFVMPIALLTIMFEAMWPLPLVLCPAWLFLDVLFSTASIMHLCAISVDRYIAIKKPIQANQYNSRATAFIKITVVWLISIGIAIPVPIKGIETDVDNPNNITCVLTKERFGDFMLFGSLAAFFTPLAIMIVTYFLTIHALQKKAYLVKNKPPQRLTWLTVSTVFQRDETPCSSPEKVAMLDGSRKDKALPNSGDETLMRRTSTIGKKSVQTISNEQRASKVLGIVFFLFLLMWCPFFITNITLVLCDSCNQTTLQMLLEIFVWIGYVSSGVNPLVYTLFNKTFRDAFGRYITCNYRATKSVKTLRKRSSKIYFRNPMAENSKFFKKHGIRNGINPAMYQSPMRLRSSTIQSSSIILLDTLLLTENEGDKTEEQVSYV
Sequence of Vasopressin V1a receptor (P37288 whole entry): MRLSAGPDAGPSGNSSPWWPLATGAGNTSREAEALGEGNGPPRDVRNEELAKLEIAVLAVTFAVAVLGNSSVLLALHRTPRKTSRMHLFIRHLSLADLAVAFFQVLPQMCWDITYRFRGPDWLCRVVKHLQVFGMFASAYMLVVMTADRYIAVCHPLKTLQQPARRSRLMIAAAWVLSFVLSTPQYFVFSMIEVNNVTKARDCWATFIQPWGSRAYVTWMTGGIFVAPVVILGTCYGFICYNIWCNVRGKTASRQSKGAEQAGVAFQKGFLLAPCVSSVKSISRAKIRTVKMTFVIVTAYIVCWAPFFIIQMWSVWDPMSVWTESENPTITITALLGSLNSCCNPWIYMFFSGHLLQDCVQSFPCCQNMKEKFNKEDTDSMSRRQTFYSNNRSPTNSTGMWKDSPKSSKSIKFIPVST
Sequence of 5-hydroxytryptamine receptor 1B (P28222 whole entry): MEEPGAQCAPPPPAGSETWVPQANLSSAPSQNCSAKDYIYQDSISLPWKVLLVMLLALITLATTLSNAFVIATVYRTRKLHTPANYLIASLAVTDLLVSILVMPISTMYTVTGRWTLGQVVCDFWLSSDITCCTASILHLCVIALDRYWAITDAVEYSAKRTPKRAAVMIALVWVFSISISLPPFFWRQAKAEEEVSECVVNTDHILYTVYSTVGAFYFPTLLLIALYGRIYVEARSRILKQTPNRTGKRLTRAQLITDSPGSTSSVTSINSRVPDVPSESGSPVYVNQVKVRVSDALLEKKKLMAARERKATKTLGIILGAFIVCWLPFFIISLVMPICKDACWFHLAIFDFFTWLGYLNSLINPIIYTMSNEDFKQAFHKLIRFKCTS
Sequence of Muscarinic acetylcholine receptor M3 (P20309 whole entry): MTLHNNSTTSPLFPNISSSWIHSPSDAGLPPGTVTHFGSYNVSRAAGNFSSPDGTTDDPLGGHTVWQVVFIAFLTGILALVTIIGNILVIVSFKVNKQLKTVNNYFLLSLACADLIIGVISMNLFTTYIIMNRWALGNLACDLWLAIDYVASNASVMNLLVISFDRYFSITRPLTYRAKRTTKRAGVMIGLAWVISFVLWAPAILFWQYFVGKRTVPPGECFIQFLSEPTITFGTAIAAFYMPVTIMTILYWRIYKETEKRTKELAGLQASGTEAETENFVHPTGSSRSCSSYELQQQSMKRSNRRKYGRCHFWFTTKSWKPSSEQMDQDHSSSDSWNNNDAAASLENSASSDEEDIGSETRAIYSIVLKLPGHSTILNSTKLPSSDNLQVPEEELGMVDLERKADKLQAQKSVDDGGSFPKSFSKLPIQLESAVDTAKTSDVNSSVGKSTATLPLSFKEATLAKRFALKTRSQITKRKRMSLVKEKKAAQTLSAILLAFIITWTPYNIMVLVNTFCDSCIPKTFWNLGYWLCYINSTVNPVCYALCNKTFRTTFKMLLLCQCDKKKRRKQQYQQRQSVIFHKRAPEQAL
Sequence of 5-hydroxytryptamine receptor 2A (P28223 whole entry): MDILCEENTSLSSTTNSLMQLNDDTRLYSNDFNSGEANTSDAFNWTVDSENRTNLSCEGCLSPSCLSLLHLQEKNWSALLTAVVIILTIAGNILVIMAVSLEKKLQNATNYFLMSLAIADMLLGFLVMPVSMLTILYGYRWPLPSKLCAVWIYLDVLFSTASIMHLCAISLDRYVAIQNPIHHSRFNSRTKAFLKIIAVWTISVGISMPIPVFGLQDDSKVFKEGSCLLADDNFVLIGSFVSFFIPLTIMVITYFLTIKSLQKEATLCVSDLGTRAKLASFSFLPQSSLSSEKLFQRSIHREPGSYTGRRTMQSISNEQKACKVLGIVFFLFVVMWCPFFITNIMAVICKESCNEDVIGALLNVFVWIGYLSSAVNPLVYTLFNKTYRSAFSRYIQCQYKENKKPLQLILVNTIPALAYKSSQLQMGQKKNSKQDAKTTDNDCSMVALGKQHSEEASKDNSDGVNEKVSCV
Sequence of Beta-2 adrenergic receptor (P07550 whole entry): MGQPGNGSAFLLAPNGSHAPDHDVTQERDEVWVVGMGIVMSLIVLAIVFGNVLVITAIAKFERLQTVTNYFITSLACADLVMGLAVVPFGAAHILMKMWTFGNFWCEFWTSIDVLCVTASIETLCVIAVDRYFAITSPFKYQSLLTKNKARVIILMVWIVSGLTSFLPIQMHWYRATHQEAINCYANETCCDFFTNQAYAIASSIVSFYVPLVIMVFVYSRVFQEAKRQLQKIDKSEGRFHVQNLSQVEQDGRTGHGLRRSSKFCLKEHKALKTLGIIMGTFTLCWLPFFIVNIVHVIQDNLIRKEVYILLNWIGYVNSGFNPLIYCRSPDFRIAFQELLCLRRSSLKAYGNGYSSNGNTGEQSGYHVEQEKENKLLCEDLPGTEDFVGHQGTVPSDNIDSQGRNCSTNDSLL

IC50 [1] | EC50 [2] | IC50 [3] | EC50 [4] | EC50 [5] | EC50 [6] | IC50 [7] | EC50 [8] | fraction unbound at 4.5 h, 5 µM [9] | IC50 [10] | chromatographic logD [11] | IC50 [12] | remaining at 24 h, 10 mg/ml [13] | remaining at 24 h, 10 mg/ml [15] | EC50 [16] | EC50 [17] | IC50 [18] | SMILES | EC20 [14]
> 5.01 µM | > 5.01 µM | > 5.01 µM | > 5.01 µM | > 5.01 µM | > 5.01 µM | > 10 µM | > 5.01 µM | 0.29 | > 5.01 µM | 1.81 | 0.1 µM | 89% | 96% | > 5.01 µM | > 5.01 µM | > 5.01 µM | CB1C=Cc2c(cccc2OCC(O)CN(C)C)N1 (stereo unspecified) | 59 µM
> 5.01 µM | > 5.01 µM | > 5.01 µM | > 5.01 µM | > 5.01 µM | > 5.01 µM | > 10 µM | > 5.01 µM | 0.096 | > 5.01 µM | 2.31 | 0.501 µM | 88% | 93% | > 5.01 µM | > 5.01 µM | > 5.01 µM | CB1C=Cc2cccc(OCC(O)CNC(C)C)c2N1 (stereo unspecified) | 18.7 µM

Source: ChEMBL document CHEMBL3734721 (J Med Chem, 2015)
